Values quoted from earlier work in patent US20050158380A1, “Sustained release oral dosage forms of gabapentin” (priority 2002, published 2005).

Settings: in vivo

NCC1(CC(=O)O)CCCCC1 [Gabapentin, 1-(aminomethyl)cyclohexaneacetic acid]
half-life: 5 to 7 h
